The text below walks through data of patent US10242153B2, “Method for determining the risk profile of neoplastic tissue” (NOVAZOI THERANOSTICS, priority 2014, dated 2019).

The subject of assay [1] is MDA-MB-231 (231) cells. The assay can be described thus: Peak subG1 fraction by flow cytometry (propidium iodide) after declustering drugs, 231 cells. Type of assay: cell-based, human. Here is the method:
(§1) To evaluate the impact of putative declustering drugs on cell cycle progression and hypodiploidy (<2N DNA content, which may indicate apoptotic cells), MDA-MB-231 (231), PC3, and HeLa cells were treated with different concentrations of declustering drugs, stained with propidium iodide, labeled with anti-MPM2 antibody, and then assessed by flow cytometry at multiple time points over 48 hr. […] The duration, highest degree, and rapidity of onset of MA varied between drugs, drug concentrations, and cell lines (data not shown). In general, the maximum MA achieved was less pronounced in Nos- and PJ-treated cells. Drug-induced onset of MA was corroborated by substantial increases in cyclin B1 levels in all cell lines. For most cases, prolonged MA (˜24 hr in duration) was followed by a substantial increase in the subG1 population fraction. […] Instances where the subGl fraction was elevated without cleaved caspase-3 may either represent caspase-independent cell death or the presence of hypodiploid cells whose fate is unclear. In general, no consistent associations between the extent, duration, or timing of MA within drugs or across cell lines was found.

The subject of assay [2] is adult human dermal fibroblasts (HDFs). The assay can be described thus: Peak subG1 fraction after declustering drugs, non-malignant HDFs. Type of assay: cell-based. To be noted: for Peak subG1 percents over 48 h: HDF; for death in cancer cell lines vs. HDFs: both concentrations. Here is the method:
as §1
(§2) To determine whether the CA-inducing activity of declustering drugs is restricted to cancer cells, two non-malignant cell lines, mammary fibrocystic (MCF10A) cells and adult human dermal fibroblasts (HDFs) were treated with these drugs. […] In comparison, 10 and 25 µM RBN increased peak CA over controls in interphase cells (p<0.001 and p=0.001, respectively), with the lower concentration dramatically augmenting peak CA to 56% of cells versus 15% for the higher dose (FIG. 13, panel B).
In HDFs, all the drugs tested increased peak subG1 over controls in a significant fashion (p<0.01 for all) (Table 2). […] Thus, it appears that there may be clinically relevant therapeutic windows for these drugs depending on the type of cancer and the drug dosage.

Assay [3] relates to HeLa cells. The assay can be described thus: Centrosome amplification (CA) by microscopy, HeLa cells. It is filed as cell-based. To be noted: for cells having CA (maximum extent) / increase in CA over controls: mitotic HeLa cells. Here is the method:
Consequently, CA was assessed in cultures treated with different concentrations of declustering drugs for 6, 12, 18, or 24 h and untreated controls via microscopy. Centrosomes were identified by γ-tubulin and centrin-2 colocalization at discrete foci. […] The peak percent CA detected over 24 h is shown in FIG. 13 (only statistically significant (P<0.05) increases over control values are represented in the Figures). To better understand the “potency” of drug-induced CA with time, the average fold change in CA over controls over 24 h was assessed (FIG. 12, panel A), whereby the extent of CA across time points (i.e., 6, 12, 18, and 24 hr) was averaged and then divided by the extent of CA in control (i.e., 0 hr). All of the drugs at least doubled the peak extent of CA in all cell lines tested (FIG. 12, panel A), although the final extent of CA could be small or large in magnitude depending on the initial centrosomal burden as shown in FIG. 11. […] The peak extent in interphase HeLa cells was somewhat less at 30.7% and 48.1% for 10 and 25 μM RBN, respectively (FIG. 13, panel A). For Nos and BN, there was no major difference in CA levels in interphase versus mitotic cells.

The test system of assay [4] is adult human dermal fibroblasts (HDFs). The assay can be described thus: Centrosome amplification (CA) by microscopy, HDFs. It is filed as cell-based. The conditions noted are these: for peak CA: interphase HDFs. The procedure:
Consequently, CA was assessed in cultures treated with different concentrations of declustering drugs for 6, 12, 18, or 24 h and untreated controls via microscopy. Centrosomes were identified by γ-tubulin and centrin-2 colocalization at discrete foci.
as §2

Assay [5] deals with N1E-115 cells. The assay can be described thus: Interphase declustering index (DI) in N1E-115 cells. Type of assay: cell-based, murine. To be noted: 6-h treatment, 25 interphase cells, drugs at their respective IC50 concentrations. The procedure: To evaluate their effect on interphase clustering, N1E-115 cells were treated with these drugs at their respective IC50 concentrations for 0, 3, 6 and 9 h and co-immunostained for γ-tubulin and α-tubulin to evaluate centrosomal spread and microtubule nucleation status, respectively.
Cell cycle phases were further evaluated via lamin A/C immunostaining to distinguish interphase declustering events from prophase centrosomal spread. To quantitate the spread of the interphase centrosomal cluster, a 3D reconstruction of z-stack images of 25 randomly-selected interphase cells from the 6-h treatment group of each drug were generated. By defining an ROI (region of interest) around the interphase centrosomal cluster, the volume of the cluster spread was calculated using Volocity software. Likewise, defining an ROI using the cell periphery provided the cell volume.

For assay [6], the system named is N1E-115 cells. The assay can be described thus: Vinculin localization in serum-starved N1E-115 cells. It is filed as cell-based, murine. To be noted: serum-starved (SS) cells. The text has this: Vinculin stabilizes cell-substrate contacts in neuronal cells undergoing neuritogenesis, while activation by actin-binding proteins mobilizes vinculin to focal adhesions. To determine the localization of vinculin in the neurite extensions and the effect of declustering agents on its localization, N1E-115 cells were immunostained cells for vinculin and stained F-actin using rhodamine-phalloidin.

Assay [7] concerns N1E-115 cells. The assay can be described thus: Ki67 and cleaved caspase-3 immunostaining of serum-starved N1E-115 cells. Type of assay: cell-based, murine. The conditions noted are these: RedBr-Nos 5 μM, Griseofulvin 10 μM, PJ-34 10 μM.
The mark [8] stands for this setting: interphase HeLa cells, 25 μM, over 24 h.

With `CN(C)CC(=O)Nc1ccc2[nH]c(=O)c3ccccc3c2c1` [PJ, PJ-34], the “Peak subG1 percents over 48 h” value worked out at 37.0% in assay [1] (10 μM), 65.0% in assay [1] (25 μM), 13.6% in assay [2] (10 μM) and 28.2% in assay [2] (25 μM). Besides, the “maximum (peak) subG1 fraction relative to control” value in assay [1] (25 μM) is listed as 10.4 × control. In assay [2], the “death in cancer cell lines vs. HDFs” value is recorded as “more death in all cancer cell lines vs. HDFs”. The “increase in peak CA extent over controls” value in assay [3] (interphase HeLa cells, 25 μM) is approximately 20 fold. Moreover, the “peak (final) extent of CA” value in assay [3] (setting [8]) was less than 20%. For the same molecule, the “extent of CA over controls” value in assay [4] (HDFs, any of the concentrations or time points assessed) is recorded as “no significant impact on CA”. Also, the “interphase declustering index (DI): ratio of average cluster volume to average cell volume” value in assay [5] is 0.14. The “vinculin localization and focal adhesion points” value in assay [6] is reported as “less severe”. Also, the Ki67-positive cells result in assay [7] is “high proportion of Ki67-positive cells”.

For the molecule reduced-9-bromonoscapine [RBN], the “Peak subG1 percents over 48 h” value in assay [1] (10 μM) was determined as 47.0%; in assay [1] (25 μM), 80.8%; in assay [2] (10 μM), 35.9%; in assay [2] (25 μM), 39.9%. The “maximum (peak) subG1 fraction relative to control” value in assay [1] (25 μM) is listed as 25 × control. In addition, the “death in cancer cell lines vs. HDFs” value in assay [2] is “more death in 231 cells”. The “peak extent of CA” value in assay [3] (interphase HeLa cells, 10 μM, over 24 h) is on record as 30.7%. Moreover, the “peak (final) extent of CA” value in assay [3] (setting [8]) is recorded as 48.1%. Moreover, the entries for the “cells having CA (maximum extent)” value in assay [3] (10 μM) and in assay [3] (25 μM) were 78% and 42%, respectively. Also, the “increase in CA over controls” value in assay [3] (10 μM) is “approximately 40 fold”; in assay [3] (25 μM), approximately 20 fold. The “peak CA” value in assay [4] (10 μM) is recorded as 56 % of cells; in assay [4] (25 μM), 15%. Besides, in assay [4] (mitotic HDFs, 10 μM), the “extent of CA” value was found to be 10%. Moreover, the “extent of CA versus controls” value in assay [4] (mitotic HDFs, 25 μM) is recorded as “Only 10 but not 25 μM RBN increased the extent of CA in mitotic cells”. For the same molecule, the “interphase declustering index (DI): ratio of average cluster volume to average cell volume” value in assay [5] came out at 0.36. For the same molecule, the “vinculin localization and focal adhesion points” value in assay [6] was “complete internalization of vinculin and complete loss of focal adhesion points”. The Ki67-positive cells result in assay [7] was “high proportion of Ki67-positive cells”.
